Experimental data reported in patent publication US20170274006A1, “NASAL COMPOSITION COMPRISING MIXTURE OF HYALURONIC ACIDS AND SALINE SOLUTION” (SOFIBEL, priority 2014, published 2017).

Tested on: HRV-A16
Assay: Anti-viral effect: inhibition of HRV-A16 replication on human airway epithelial cell culture
Format: cell-based, rhinovirus
Conditions: applied one hour before infection; change in viral RNA
Protocol: The example 1 composition is tested according to the test of evaluation of the potential activity against HRV-A16 (a rhinovirus responsible for colds) on fully differentiated human airway epithelial cells culture. The compositions are first applied before infection for one hour and the replication is carried out for 4 hours. 3 rinsing steps with the formulations are carried out. The remaining is collected and the RNA is dosed after cell lysis. The same collecting step is carried out 24 hours after and the same dosing step is carried out. The percentage expressed the changes in viral RNA, resulting in the % of inhibition of HRV-A16 replication, leading to the anti-viral efficacy. The tested composition is tested against rupintrivir (a known antiviral compound, providing an almost complete response).

CCOC(=O)/C=C/[C@H](C[C@@H]1CCNC1=O)NC(=O)[C@@H](CC(=O)[C@@H](NC(=O)c1cc(C)on1)C(C)C)Cc1ccc(F)cc1 [Rupintrivir]
Inhibition (%) of HRV-A16 replication: 99.62%
